Test results published in PubChem BioAssay AID1259407 (Chemical Carcinogenesis Research Information System (CCRIS), 2018).
Active and inactive are the calls of the source. The rule behind the calls is not given here.

Test system: CCRIS mutagenicity, Ames/micronucleus/aberration tests
Assay: CCRIS mutagenicity studies
[1] = Test System: AMES SALMONELLA TYPHIMURIUM, Strain/Indicator: TA98, Metabolic Activation: HAMSTER, LIVER, S-9, AROCLOR 1254 (30%), Method: PREINCUBATION
[2] = Test System: AMES SALMONELLA TYPHIMURIUM, Strain/Indicator: TA98, Metabolic Activation: NONE, Method: PREINCUBATION
[3] = Test System: AMES SALMONELLA TYPHIMURIUM, Strain/Indicator: TA98, Metabolic Activation: RAT, LIVER, S-9, AROCLOR 1254 (30%), Method: PREINCUBATION
[4] = Test System: AMES SALMONELLA TYPHIMURIUM, Strain/Indicator: TA100, Metabolic Activation: HAMSTER, LIVER, S-9, AROCLOR 1254 (30%), Method: PREINCUBATION
[5] = Test System: AMES SALMONELLA TYPHIMURIUM, Strain/Indicator: TA100, Metabolic Activation: NONE, Method: PREINCUBATION
[6] = Test System: AMES SALMONELLA TYPHIMURIUM, Strain/Indicator: TA100, Metabolic Activation: RAT, LIVER, S-9, AROCLOR 1254 (30%), Method: PREINCUBATION

## CC(=O)CC(C)C
Test System: AMES SALMONELLA TYPHIMURIUM, Strain/Indicator: TA97, Metabolic Activation: HAMSTER, LIVER, S-9, AROCLOR 1254 (10 OR 30%), Method: PREINCUBATION
  mutagenic call: inactive; negative
Test System: AMES SALMONELLA TYPHIMURIUM, Strain/Indicator: TA97, Metabolic Activation: NONE, Method: PREINCUBATION
  mutagenic call: inactive; negative
Test System: AMES SALMONELLA TYPHIMURIUM, Strain/Indicator: TA97, Metabolic Activation: RAT, LIVER, S-9, AROCLOR 1254 (10 OR 30%), Method: PREINCUBATION
  mutagenic call: inactive; negative
Test System: AMES SALMONELLA TYPHIMURIUM, Strain/Indicator: TA98, Metabolic Activation: HAMSTER, LIVER, S-9, AROCLOR 1254 (10%), Method: PREINCUBATION
  mutagenic call: inactive; negative
[1]
  mutagenic call: inactive; negative
[2]
  mutagenic call: inactive; negative
Test System: AMES SALMONELLA TYPHIMURIUM, Strain/Indicator: TA98, Metabolic Activation: RAT, LIVER, S-9, AROCLOR 1254 (10%), Method: PREINCUBATION
  mutagenic call: inactive; negative
[3]
  mutagenic call: inactive; negative
Test System: AMES SALMONELLA TYPHIMURIUM, Strain/Indicator: TA98, Metabolic Activation: RAT, LIVER, S-9, AROCLOR 1254, Method: PREINCUBATION
  mutagenic call: inactive; negative
Test System: AMES SALMONELLA TYPHIMURIUM, Strain/Indicator: TA100, Metabolic Activation: HAMSTER, LIVER, S-9, AROCLOR 1254 (10%), Method: PREINCUBATION
  mutagenic call: inactive; negative
[4]
  mutagenic call: inactive; negative
[5]
  mutagenic call: inactive; negative
Test System: AMES SALMONELLA TYPHIMURIUM, Strain/Indicator: TA100, Metabolic Activation: RAT, LIVER, S-9, AROCLOR 1254 (10%), Method: PREINCUBATION
  mutagenic call: inactive; negative
[6]
  mutagenic call: inactive; negative
Test System: AMES SALMONELLA TYPHIMURIUM, Strain/Indicator: TA100, Metabolic Activation: RAT, LIVER, S-9, AROCLOR 1254, Method: PREINCUBATION
  mutagenic call: inactive; negative
Test System: AMES SALMONELLA TYPHIMURIUM, Strain/Indicator: TA1535, Metabolic Activation: HAMSTER, LIVER, S-9, AROCLOR 1254 (10%), Method: PREINCUBATION
  mutagenic call: inactive; negative
Test System: AMES SALMONELLA TYPHIMURIUM, Strain/Indicator: TA1535, Metabolic Activation: HAMSTER, LIVER, S-9, AROCLOR 1254 (30%), Method: PREINCUBATION
  mutagenic call: inactive; negative
Test System: AMES SALMONELLA TYPHIMURIUM, Strain/Indicator: TA1535, Metabolic Activation: NONE, Method: PREINCUBATION
  mutagenic call: inactive; negative
Test System: AMES SALMONELLA TYPHIMURIUM, Strain/Indicator: TA1535, Metabolic Activation: RAT, LIVER, S-9, AROCLOR 1254 (10%), Method: PREINCUBATION
  mutagenic call: inactive; negative
Test System: AMES SALMONELLA TYPHIMURIUM, Strain/Indicator: TA1535, Metabolic Activation: RAT, LIVER, S-9, AROCLOR 1254 (30%), Method: PREINCUBATION
  mutagenic call: inactive; negative
Test System: AMES SALMONELLA TYPHIMURIUM, Strain/Indicator: TA1535, Metabolic Activation: RAT, LIVER, S-9, AROCLOR 1254, Method: PREINCUBATION
  mutagenic call: inactive; negative
Test System: AMES SALMONELLA TYPHIMURIUM, Strain/Indicator: TA1537, Metabolic Activation: NONE, Method: PREINCUBATION
  mutagenic call: inactive; negative
Test System: AMES SALMONELLA TYPHIMURIUM, Strain/Indicator: TA1537, Metabolic Activation: RAT, LIVER, S-9, AROCLOR 1254, Method: PREINCUBATION
  mutagenic call: inactive; negative
Test System: AMES SALMONELLA TYPHIMURIUM, Strain/Indicator: TA1538, Metabolic Activation: NONE, Method: PREINCUBATION
  mutagenic call: inactive; negative
Test System: AMES SALMONELLA TYPHIMURIUM, Strain/Indicator: TA1538, Metabolic Activation: RAT, LIVER, S-9, AROCLOR 1254, Method: PREINCUBATION
  mutagenic call: inactive; negative
Test System: MOUSE LYMPHOMA, Strain/Indicator: L5178Y (TK+/TK-), Metabolic Activation: NONE, Method: SUSPENSION/PLATE
  mutagenic call: active; positive
Test System: MOUSE LYMPHOMA, Strain/Indicator: L5178Y (TK+/TK-), Metabolic Activation: RAT, LIVER, S-9, AROCLOR 1242 AND AROCLOR 1254 (2:1), Method: SUSPENSION/PLATE
  mutagenic call: inactive; negative

## Clc1ccc(C(Cl)(Cl)Cl)cc1Cl
[1]
  mutagenic call: active; positive
[2]
  mutagenic call: inactive; negative
[3]
  mutagenic call: active; positive
[4]
  mutagenic call: active; positive
[5]
  mutagenic call: inactive; negative
[6]
  mutagenic call: active; positive

## C/C=C/C
Test System: AMES SALMONELLA TYPHIMURIUM, Strain/Indicator: TA98, Metabolic Activation: NONE, Method: GAS EXPOSURE
  mutagenic call: inactive; negative
Test System: AMES SALMONELLA TYPHIMURIUM, Strain/Indicator: TA98, Metabolic Activation: RAT LIVER S-9, PHENOBARBITAL AND BETA-NAPHTHOFLAVONE (40%), Method: GAS EXPOSURE
  mutagenic call: inactive; negative
Test System: AMES SALMONELLA TYPHIMURIUM, Strain/Indicator: TA100, Metabolic Activation: NONE, Method: GAS EXPOSURE
  mutagenic call: inactive; negative
Test System: AMES SALMONELLA TYPHIMURIUM, Strain/Indicator: TA100, Metabolic Activation: RAT LIVER S-9, PHENOBARBITAL AND BETA-NAPHTHOFLAVONE (40%), Method: GAS EXPOSURE
  mutagenic call: inactive; negative
Test System: AMES SALMONELLA TYPHIMURIUM, Strain/Indicator: TA1535, Metabolic Activation: NONE, Method: GAS EXPOSURE
  mutagenic call: inactive; negative
Test System: AMES SALMONELLA TYPHIMURIUM, Strain/Indicator: TA1535, Metabolic Activation: RAT LIVER S-9, PHENOBARBITAL AND BETA-NAPHTHOFLAVONE (40%), Method: GAS EXPOSURE
  mutagenic call: inactive; negative
Test System: AMES SALMONELLA TYPHIMURIUM, Strain/Indicator: TA1537, Metabolic Activation: NONE, Method: GAS EXPOSURE
  mutagenic call: inactive; negative
Test System: AMES SALMONELLA TYPHIMURIUM, Strain/Indicator: TA1537, Metabolic Activation: RAT LIVER S-9, PHENOBARBITAL AND BETA-NAPHTHOFLAVONE (40%), Method: GAS EXPOSURE
  mutagenic call: inactive; negative
Test System: E.COLI, Strain/Indicator: WP2UVRA, Metabolic Activation: NONE, Method: GAS EXPOSURE
  mutagenic call: inactive; negative
Test System: E.COLI, Strain/Indicator: WP2UVRA, Metabolic Activation: RAT LIVER S-9, PHENOBARBITAL AND BETA-NAPHTHOFLAVONE (40%), Method: GAS EXPOSURE
  mutagenic call: inactive; negative

## CCCCCCCC/C=C\CCCCCCCCCCCC(=O)NCCCCCCCCCCCCCCCCCC
Test System: AMES SALMONELLA TYPHIMURIUM, Strain/Indicator: TA97, Metabolic Activation: NONE, Method: STANDARD PLATE
  mutagenic call: inactive; negative
Test System: AMES SALMONELLA TYPHIMURIUM, Strain/Indicator: TA97, Metabolic Activation: S-9, Method: STANDARD PLATE
  mutagenic call: inactive; negative
Test System: AMES SALMONELLA TYPHIMURIUM, Strain/Indicator: TA98, Metabolic Activation: NONE, Method: STANDARD PLATE
  mutagenic call: inactive; negative
Test System: AMES SALMONELLA TYPHIMURIUM, Strain/Indicator: TA98, Metabolic Activation: S-9, Method: STANDARD PLATE
  mutagenic call: inactive; negative
Test System: AMES SALMONELLA TYPHIMURIUM, Strain/Indicator: TA100, Metabolic Activation: NONE, Method: STANDARD PLATE
  mutagenic call: inactive; negative
Test System: AMES SALMONELLA TYPHIMURIUM, Strain/Indicator: TA100, Metabolic Activation: S-9, Method: STANDARD PLATE
  mutagenic call: inactive; negative
Test System: AMES SALMONELLA TYPHIMURIUM, Strain/Indicator: TA102, Metabolic Activation: NONE, Method: STANDARD PLATE
  mutagenic call: inactive; negative
Test System: AMES SALMONELLA TYPHIMURIUM, Strain/Indicator: TA102, Metabolic Activation: S-9, Method: STANDARD PLATE
  mutagenic call: inactive; negative
Test System: E.COLI, Strain/Indicator: WP2 (PKM101), Metabolic Activation: NONE, Method: STANDARD PLATE
  mutagenic call: inactive; negative
Test System: E.COLI, Strain/Indicator: WP2 (PKM101), Metabolic Activation: S-9, Method: STANDARD PLATE
  mutagenic call: inactive; negative

## CS(=O)CCCCN=C=S (centres undefined)
End Point: IN VITRO MICRONUCLEUS, Test System: HUMAN T-LYMPHOCYTES, Metabolic Activation: NONE
  mutagenic call: inactive; negative
